Measured values from patent US20050032743A1, “Compositions and method for steroid homeostasis” (priority 2002, published 2005).
“And” between values parts separate entries of the source, which are not always exact repeats. Equal values may be shown once.

How the values were obtained:
[1] = system: Vitamin D deficient Sprague Dawley rats; test: Effect of calcium fructoborate on bone density in vitamin D deficient rats; format: in vivo
Protocol: Vitamin D deficient Sprague Dawley rats (21 days old) were divided into three groups and fed a regulated vitamin D deficient diet (0.47% Ca, 0.3% P) over a period of 9 weeks. The diet of the first group was supplemented with calcium fructoborate at 30 mcg/gm, the diet of the second group was supplemented with calcium fructoborate at 185 mcg/gm, and the diet of the third group was left unchanged as a control group. At the end of the test period animals of all three groups were evaluated for increase in vitamin D levels and increase in bone density.

[2] = system: serum/plasma concentrations of testosterone, 25-hydroxy vitamin D, and dehydroepiandrosterone; test: Effect of calcium fructoborate on selected steroids in healthy volunteers; format: in vivo, human; conditions: for DHEA (dehydroepiandrosterone serum/plasma concentration) / TES (Testosterone serum/plasma concentration) / VITD (Vitamin D serum/plasma concentration): individual volunteer
Protocol: A group of healthy volunteers was given after obtaining their informed consent a daily oral dose of 6 mg Calcium fructoborate (as prepared in Example 1 above) for a period of 60 days, and the serum/plasma concentrations of testosterone, 25-hydroxy vitamin D, and dehydroepiandrosterone was determined in an independent clinical laboratory. Table 1 below summarizes the results in which TES refers to ng/ml Testosterone, DHEA refers to mcg/ml dehydroepiandrosterone, and VITD refers to ng/ml Vitamin D. The first number is the serum/plasma concentration at the beginning of the trial while the second number is the serum/plasma concentration after 60 days.

[3] = severely vitamin D deficient rats, 9 weeks
[4] = after 60 days of daily oral 6 mg (second number)
[5] = at the beginning of the trial (first number)
[6] = daily oral 6 mg, 60 days, four volunteers

calcium fructoborate
bone ash increase over the control ([1]; first test group, diet supplemented at 30 mcg/gm, 9 weeks): 1.4% | bone ash increase over the control ([1]; second test group, diet supplemented at 185 mcg/gm, 9 weeks): 5.8% | conservation or biosynthesis of vitamin D [1, 3]: did not conserve or promote biosynthesis of vitamin D | growth of the animals [1, 3]: failed to promote growth of the animals | raising the serum calcium concentration above the control [1, 3]: failed | bone density ([1]; under vitamin D deficiency conditions): increased the bone density | DHEA (dehydroepiandrosterone serum/plasma concentration) [2, 4]: 2.1 mcg/ml (2×) and 4.1 mcg/ml and 2.95 mcg/ml | TES (Testosterone serum/plasma concentration) [2, 4]: 14.1 ng/mL and 8.2 ng/mL and 7.8 ng/mL and 8.0 ng/mL | VITD (Vitamin D serum/plasma concentration) [2, 4]: 9.9 ng/mL and 16.1 ng/mL and 15.8 ng/mL and 12.0 ng/mL | DHEA (dehydroepiandrosterone serum/plasma concentration) [2, 5]: 1.9 mcg/ml (2×) and 3.5 mcg/ml and 2.75 mcg/ml | TES (Testosterone serum/plasma concentration) [2, 5]: 11.9 ng/ml and 6.3 ng/ml and 6.2 ng/ml (2×) | VITD (Vitamin D serum/plasma concentration) [2, 5]: 7.9 ng/mL and 12.1 ng/mL and 11.8 ng/mL and 9.3 ng/mL | serum/plasma concentration of various steroids ([2]; daily oral 6 mg, 60 days): significantly increased | Average increase DHEA [2, 6]: 11% | Average increase TES [2, 6]: 25% | Average increase VITD [2, 6]: 28%
